Data set [1] in a line: Plasma pharmacokinetics after gavage in rats. The settings on record: gavage 40 mg/kg. It counts as in vivo, Sprague-Dawley rats. The method, then:
Test group B: The self-emulsifying composition of baicalein encapsulating baicalein ingredient in Comparative Example 1 (hereinafter labeled OBA-SMEDDS) was administered.
Test group C: Baicalein ingredient (hereinafter labeled BA) was administered.
Sprague-Dawley rats (male, 200 g) were fed for one week before tests, forbidden to eat rather than drink the night before the tests, and supplied with water freely during the tests.
15 rats were randomly divided into three groups (test group A, test group B and test group C, separately), with 5 rats in each group. Gavage (2-3 mL) was provided at a dose of 40 mg/kg. 0.3 mL of blood was taken from the retro-orbital venous plexus at 5, 15, 30, 45, 60 and 75 min and 3, 6, 8, 10, 12 and 24 h after administration, placed in a pre-heparinized 1.5 mL conical centrifuge tube, and centrifuged at 4000 r/min for 15 min. The upper plasma was aspirated, stored in the refrigerator at −80° C., and thawed at normal temperature before determination.
Treatment of plasma samples: 100 μL of plasma was taken, placed in a 1.5 mL conical centrifuge tube, added with 10 μL of ascorbic acid (200 mg/mL), 20 μL of an internal standard solution (500 ng/ml) and 300 μL of methanol, vortexed for 60 s, and centrifuged at 12000 r/min for 10 min. Then, the supernatant was aspirated, placed in a centrifuge tube, concentrated through centrifugation to remove the solvent (40° C.), added with 200 μL of methanol:water (80:20) to be dissolved, vortexed for 30 s, and centrifuged at 12000 r/min for 5 min. 20 μL of the supernatant was injected and the plasma concentration was determined under the following chromatography conditions (liquid chromatography-mass spectrometry).
Chromatography column: Agilent ZORBAX SB C18 column (250 mm×4.6 mm, […]);
Column temperature: 25° C.;
Mobile phase (gradient elution, see Table 11): acetonitrile-0.1% formic acid as an eluent.
Electrospray ion source (ESI), positive ion mode, multiple reaction monitoring (MRM);
Other parameters: an atomizer pressure of 40 psi, a drying gas flowrate of 9 L/min, a drying gas temperature of 350° C., a capillary voltage of 4000V and a split ratio of 1:2.
MRM detection ion pair for quantification: baicalin [M+H]+ 447.0→271.1;

Data set [2] can be described thus: Saturated solubility in oil phase and blank self-emulsifying concentrate. It counts as physicochemical. Particulars: room temperature 24 hours. The procedure: They were placed at room temperature for 24 hours to observe whether the drug was precipitated. If no drug was precipitated, an appropriate amount of each phospholipid complex was added and operated in the same manner until the drug was precipitated. The supernatant was taken and centrifuged at 12000 r/min for 20 min. Then, the supernatant was taken and the saturated solubility of each flavonoid polyphenol drug-phospholipid complex in the oil phase and the blank self-emulsifying concentrate was determined by the preceding HPLC method.

Where [3] appears, read: male, Sprague-Dawley, rat, po, baicalein in plasma.

Molecules are shown by their SMILES.

The record followed here is patent US11771660B2, “Flavonoid polyphenol drug self-emulsifying composition, preparation method therefor, pharmaceutical composition thereof and application thereof” (priority 2019, dated 2023).

Take `O=c1cc(-c2ccccc2)oc2cc(O)c(O)c(O)c12` [BA, baicalein]: in data set [1] (baicalein in plasma), the “AUC (0-t)” value amounted to 15864.8 µg·min/L and the “AUC (0-∞)” value was 15880.4 µg·min/L. In data set [1] (setting [3]), the Cmax is 99.1 ± 42 ng/mL and the time to peak (Tmax) was 1.25 h. In addition, in data set [1] (male, Sprague-Dawley, rat, po, baicalein in plasma, read-out: MRT (0-t) (converted)), the MRT last is 4 h. Also, the MRT inf in data set [1] (male, Sprague-Dawley, rat, po, baicalein in plasma, read-out: MRT (0-∞) (converted)) was 4.01 h. The bioavailability in data set [1] (male, Sprague-Dawley, rat, po, relative to baicalein ingredient, based on baicalein in plasma) was determined as 100%. Further, the “saturated solubility in the blank self-emulsifying concentrate (drug load of the self-emulsifying composition)” value in data set [2] (ethyl oleate:labraosol:transcutol HP 2:5:3) was found to be 20 mg/g. Moreover, the “saturated solubility in oil” value in data set [2] (oil phase ethyl oleate) came to 0.3 mg/g.
